Among the test systems are IGROV1 ovarian; M14 melanoma; MDA-MB-435; MOLT-4 leukemia; NCI-H23 lung; RPMI-8226 leukemia; SK-MEL-2 melanoma; SW-620 colon; T-47D breast; UACC-257 melanoma.
Holding throughout (assay): NCI tumour cell line growth inhibition, 48 h

The values below come from PubChem BioAssay (NCI).

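Test compounds were applied to cells in 96-well plates for 48 hours at 5 doses. TGI: concentration producing complete growth inhibition.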

With `O=C(Nc1sccc1S(=O)(=O)c1ccc(Cl)cc1)c1ccc(F)cc1F`, the TGI in the experiment on IGROV1 ovarian was above 100 µM; with M14 melanoma, above 100 µM; in the experiment with MDA-MB-435, above 100 µM; with MOLT-4 leukemia, 56.7 µM; in the experiment with NCI-H23 lung, 54.9 µM; in the experiment with RPMI-8226 leukemia, above 100 µM. In addition, the TGI in the experiment on SK-MEL-2 melanoma was 39.5 µM; in the experiment with SW-620 colon, above 100 µM; with T-47D breast it was above 100 µM; in the experiment on UACC-257 melanoma, above 100 µM.
For the compound `C1=NCCNCCNCCN=Cc2ccc(cc2)OCc2cccc(n2)COc2ccc1cc2`, the TGI in the experiment on IGROV1 ovarian, in the experiment with M14 melanoma, in the experiment on MDA-MB-435, with MOLT-4 leukemia, in the experiment with NCI-H23 lung and with RPMI-8226 leukemia was above 100 µM each time. The TGI with SK-MEL-2 melanoma, in the experiment on SW-620 colon, in the experiment with T-47D breast and with UACC-257 melanoma was above 100 µM in each case.
Consider `O=C1CCCNn2c(nc3ncccc3c2=O)N1`, for which the TGI in the experiment with IGROV1 ovarian, in the experiment with M14 melanoma, in the experiment with MDA-MB-435, with MOLT-4 leukemia, with NCI-H23 lung and with RPMI-8226 leukemia was above 100 µM each time. Besides, the TGI in the experiment with SK-MEL-2 melanoma, with SW-620 colon, in the experiment with T-47D breast and in the experiment on UACC-257 melanoma was above 100 µM in each case.
For `O=C1COc2cc(N3CCN(c4cccc(C(F)(F)F)c4)CC3)ccc2N1`, the TGI in the experiment with IGROV1 ovarian, in the experiment on M14 melanoma, in the experiment with MDA-MB-435, in the experiment on MOLT-4 leukemia, with NCI-H23 lung and in the experiment with RPMI-8226 leukemia was above 100 µM each time. For the same compound, the TGI in the experiment with SK-MEL-2 melanoma, in the experiment with SW-620 colon, in the experiment on T-47D breast and in the experiment with UACC-257 melanoma was above 100 µM throughout.
Turning to `FC(F)(F)c1cc(N(C2c3ccccc3C=Cc3ccccc32)P(Cl)Cl)cc(C(F)(F)F)c1`, the TGI was 92.3 µM in the experiment with IGROV1 ovarian; 58 µM in the experiment on M14 melanoma; 64.9 µM in the experiment on MDA-MB-435; 54.4 µM with MOLT-4 leukemia; 97.7 µM in the experiment on NCI-H23 lung; 51.2 µM in the experiment on RPMI-8226 leukemia. Moreover, the TGI stood at 37 µM with SK-MEL-2 melanoma, 82.6 µM with SW-620 colon, 56.4 µM with T-47D breast and 39.9 µM in the experiment with UACC-257 melanoma.
For `C/C=C(\C)C(=O)OC1CC(OC(C)=O)C2(C(=O)OC)COC3C2C1(C)C1C2(C(=O)OC)OCC1(C3O)C1(O)C3CC(C4(O)C=COC4O3)C1(C)O2` (stereo not given), the TGI with IGROV1 ovarian, in the experiment on M14 melanoma, in the experiment on MDA-MB-435, in the experiment with MOLT-4 leukemia, in the experiment on NCI-H23 lung and in the experiment on RPMI-8226 leukemia was above 100 µM in each case. Also, the TGI in the experiment with SK-MEL-2 melanoma, in the experiment on SW-620 colon, in the experiment with T-47D breast and in the experiment with UACC-257 melanoma was above 100 µM throughout.
Turning to `COC(C/C(=C/CO[Si](C(C)C)(C(C)C)C(C)C)C(=O)N(COCC[Si](C)(C)C)c1ccccc1I)OC`, the TGI was 27.4 µM in the experiment with IGROV1 ovarian; above 100 µM in the experiment with M14 melanoma; 29.1 µM in the experiment with MDA-MB-435; above 100 µM with MOLT-4 leukemia; 79.5 µM in the experiment with NCI-H23 lung; above 100 µM in the experiment on RPMI-8226 leukemia. In addition, the TGI is 29.9 µM with SK-MEL-2 melanoma, above 100 µM with SW-620 colon, above 100 µM in the experiment on T-47D breast and 69.9 µM with UACC-257 melanoma.
As to `O=C(c1ccccc1)c1ccc2nc(-c3c(Cl)c(Cl)c(Cl)c(Cl)c3-c3nnc(-c4ccccc4)o3)[nH]c2c1`, the TGI with IGROV1 ovarian, in the experiment with M14 melanoma, with MDA-MB-435, in the experiment with MOLT-4 leukemia, with NCI-H23 lung and in the experiment with RPMI-8226 leukemia was above 100 µM each time. Besides, the TGI in the experiment on SK-MEL-2 melanoma, with SW-620 colon, with T-47D breast and in the experiment on UACC-257 melanoma was above 100 µM in each case.
Consider `COC(=O)c1ccccc1C1CN=NC12Cc1c(ccc3c1CCC3)C2=O` (stereo not given), for which the TGI in the experiment on IGROV1 ovarian is above 100 µM; with M14 melanoma, above 100 µM; with MDA-MB-435 it was 56.2 µM; in the experiment on MOLT-4 leukemia, above 100 µM; with NCI-H23 lung, above 100 µM; in the experiment with RPMI-8226 leukemia, 86 µM. Moreover, the TGI is above 100 µM in the experiment on SK-MEL-2 melanoma, above 100 µM with SW-620 colon, above 100 µM with T-47D breast and 95.1 µM in the experiment with UACC-257 melanoma.
Regarding `Cc1cn(C2CCC(CO)(CF)O2)c(=O)[nH]c1=O` (stereo not given), the TGI in the experiment with IGROV1 ovarian, in the experiment with M14 melanoma, with MDA-MB-435, with MOLT-4 leukemia, with NCI-H23 lung and in the experiment with RPMI-8226 leukemia was above 100 µM throughout. Further, the TGI with SK-MEL-2 melanoma, in the experiment with SW-620 colon, in the experiment with T-47D breast and in the experiment with UACC-257 melanoma was above 100 µM throughout.
Consider `Cc1ccc(S(=O)(=O)NC(CCC(=O)NNc2ccccc2)C(=O)NNc2ccccc2)cc1` (stereo not given), for which the TGI was above 100 µM in the experiment with IGROV1 ovarian; 78.8 µM in the experiment with M14 melanoma; above 100 µM in the experiment with MDA-MB-435; above 100 µM in the experiment on MOLT-4 leukemia; above 100 µM in the experiment with NCI-H23 lung; above 100 µM in the experiment with RPMI-8226 leukemia. For the same compound, the TGI is 83.2 µM in the experiment on SK-MEL-2 melanoma, above 100 µM with SW-620 colon, above 100 µM in the experiment with T-47D breast and above 100 µM with UACC-257 melanoma.
On to `CCCC[C@@H](C)/C=C1\CN2CCC[C@H]2[C@@](C)(OCc2ccccc2)[C@@H]1O`, for which the TGI in the experiment with IGROV1 ovarian was above 50 µM; with M14 melanoma, above 50 µM; with MDA-MB-435, above 50 µM; in the experiment with MOLT-4 leukemia it was above 50 µM; with NCI-H23 lung it was above 50 µM; in the experiment with RPMI-8226 leukemia, above 23.7 µM. In addition, the TGI was above 50 µM in the experiment on SK-MEL-2 melanoma, above 50 µM in the experiment on SW-620 colon, above 19.3 µM in the experiment on T-47D breast and above 46.1 µM in the experiment on UACC-257 melanoma.
`N#Cc1c(-c2ccc(Cl)cc2)cc(-c2ccc(Nc3ccnc4cc(Cl)ccc34)cc2)[nH]c1=O`: the TGI with IGROV1 ovarian is above 100 µM; with M14 melanoma, above 100 µM; with MDA-MB-435 it was above 100 µM; with MOLT-4 leukemia, above 100 µM; with NCI-H23 lung, above 75.9 µM; with RPMI-8226 leukemia, above 100 µM. For the same compound, the TGI in the experiment with SK-MEL-2 melanoma, in the experiment on SW-620 colon, with T-47D breast and with UACC-257 melanoma was above 100 µM throughout.
